{"source": "patent US20230339878A1", "about": "“SLC26A3 INHIBITORS AND USE THEREOF” (THE REGENTS OF THE UNIVERSITY OF CALIFORNIA, priority 2018, published 2023)", "target": "T1, pendrin (slc26a4) (Mus musculus, UniProt Q9R155)", "T1 construct": "expressed in transfected cells; host or cells: FRT cells expressing YFP and slc26a4", "T1 sequence (Q9R155 1-780)": "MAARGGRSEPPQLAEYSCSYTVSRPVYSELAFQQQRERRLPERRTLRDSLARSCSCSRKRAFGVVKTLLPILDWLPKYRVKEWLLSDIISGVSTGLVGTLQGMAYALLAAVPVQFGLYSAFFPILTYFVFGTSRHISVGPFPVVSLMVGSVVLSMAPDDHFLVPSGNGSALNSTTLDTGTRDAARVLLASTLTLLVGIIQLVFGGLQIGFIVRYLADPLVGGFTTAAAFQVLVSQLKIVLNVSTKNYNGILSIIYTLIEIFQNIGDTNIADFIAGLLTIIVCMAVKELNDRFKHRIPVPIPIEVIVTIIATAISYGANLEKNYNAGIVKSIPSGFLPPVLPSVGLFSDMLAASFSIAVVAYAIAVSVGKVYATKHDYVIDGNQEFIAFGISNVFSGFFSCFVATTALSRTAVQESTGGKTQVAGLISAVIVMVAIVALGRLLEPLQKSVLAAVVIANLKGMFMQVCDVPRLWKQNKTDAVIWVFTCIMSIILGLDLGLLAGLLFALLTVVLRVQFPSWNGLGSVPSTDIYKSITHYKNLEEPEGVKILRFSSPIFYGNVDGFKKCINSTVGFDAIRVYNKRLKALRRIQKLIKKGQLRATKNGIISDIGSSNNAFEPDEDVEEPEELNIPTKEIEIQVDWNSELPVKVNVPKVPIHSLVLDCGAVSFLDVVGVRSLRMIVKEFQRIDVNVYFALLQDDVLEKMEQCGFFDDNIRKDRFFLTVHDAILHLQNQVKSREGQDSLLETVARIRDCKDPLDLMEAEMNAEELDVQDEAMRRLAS", "assay": "Selectivity: pendrin-mediated Cl-/I- exchange, YFP assay", "assay_type": "cell-based, murine", "conditions": "10 µM", "description": "To investigate Compound A1 selectivity, transport assays were done on a panel of SLC26-family homologs, and other relevant epithelial ion transporters and channels. […] In separate studies, to investigate possible action of Compound A1 on multiple ion transporters and channels in a human epithelium, human bronchial epithelial (HBE) cells were studied by short-circuit current, with successive additions of amiloride (to block the epithelial sodium channel ENaC), forskolin, CFTRinh-172 (to block CFTR), and ATP (to activate the Ca^2+-activated chloride channel, CaCC) (FIG. 5C).\nYFP-based assays of CFTR, pendrin and TMEM16A were as described. HEK cells transfected to express YFP and SLC26A3, slc26a6 or slc26a9 were functionally assayed using a Cl^-/I^- exchange protocol. Assays of Cl^-/HCO3^- exchange were done using BCECF as an intracellular pH indicator as described for pendrin. […]\nHEK293 cells transfected with pIRES-YFP-slc26a9 were plated in 96-well black-walled, clear-bottom tissue culture plates (Corning Life Sciences, Tewksbury, MA) after coating with FNC Coating Mix (AthenaES, Baltimore, MD). […] Assays of slc26a9-mediated anion exchange were done by initially recording YFP fluorescence prior to addition of 100 µL of NaI-substituted PBS to test wells, with the initial rate of Cl^-/I^- exchange deduced from fluorescence intensity by single exponential regression. […]", "note": "Entries after “also recorded” stand apart in the source; their conditions may differ."}
{"compound": "Cc1c(CC(=O)O)c(=O)oc2c(C)c(OCc3cccc(Br)c3)ccc12", "note": "[Compound A1]", "values": [{"measurement": "effect on Cl-/I- exchange activity of pendrin (slc26a4)", "value": "did not alter; also recorded: did not inhibit; also recorded: differences not significant"}]}
